Assay results reported in article PMC9481570, “A small molecule antagonist of SMN disrupts the interaction between SMN and RNAP II” (Nature Communications, 2022).

Key:
mCherry-SMN = biological target: T1, mCherry-SMN (Homo sapiens, UniProt Q16637); experiment: Fluorescence colocalization in U2OS cells, mCherry-SMN WT; format: cell-based; conditions: 10 μM, 24 h
T1 construct: the coding DNAs of full-length SMN, SND1 and TDRD3 were cloned into mCherry2-C1 or GFP-C1 vector; expressed in transfected cells; host or cells: U2OS
Protocol: (§1) U2OS cells (ATCC, HTB-96) were plated in a 35 mm FluoroDish with a 0.17 mm coverslip bottom (World Precision Instruments, FD35-100) for 12–24 h and transfected with 1.0 μg mCherry-SMN WT (wild-type) or mutant plasmids. Media was changed 4–6 h after transfection and cells were cultured for another 24 h. 10 μM CCVJ-Cmpd 1 was added for 24 h treatment. Then the treated cells were rinsed by PBS and the media replaced with phenol-free FluoroBright DMEM (Thermo Fisher, A1896701) for analysis by using Zeiss LSM880 microscopy.

[1] = tested on: mCherry-SMN cage mutant (W102); experiment: Fluorescence colocalization in U2OS cells, mCherry-SMN cage mutant; format: cell-based, human; conditions: 10 μM, 24 h, W102 mutated
Protocol: as §1

SMN Tudor domain [2] = biological target: T2, SMN Tudor domain (Homo sapiens, UniProt Q16637); experiment: ITC binding to Tudor domain of SMN; conditions: Supplementary Figs. 2, 4 and 11a (VP-ITC); read-out: Kd, ITC binding curve, Tudor domain of SMN
T2 construct: SMN (aa 82–147); His (N, cleaved yes); made in house; host or cells: E. coli BL21 (DE3) Codon plus RIL
Source text: The coding DNA fragments of following Tudor domains were cloned into pET28-MHL vector: SMN (aa 82–147), UHRF1 (aa 126–285), SMNDC1 (aa 53–130), TDRD3 (aa 554–611), SND1 (aa 650–910), TDRD2 (aa 327–420), FXR1 (aa 2–132), PHF1 (aa 28–87), SGF29 (aa 115–293), JMJD2A (aa 897–1101), 53BP1 (aa 1483–1606), SETDB1 (aa 190–410), LBR (aa 1–67), ZGPAT (aa 120–271). The coding regions of chromodomain of CBX7 (aa 8–62), PWWP domain of DNMT3A (aa 275–417), WD40 repeats of WDR5 (aa 24–334) and CW domain of ZCWPW2 (aa 21–78) were also subcloned into pET28-MHL vector to generate N-terminally His-tagged fusion protein. The MBT repeats of L3MBTL1 (aa 200–522) and L3MBTL2 (aa 170–625) were subcloned into pET28GST-LIC vector to generate N-terminally GST-His-tagged fusion protein. All the plasmids were generated by ligase independent cloning (Vazyme Biotech, C112 or ABclonal Technology, RK21020). […] The proteins were further purified by Superdex75 or Superdex200 gel-filtration column (GE Healthcare) in a buffer containing 20 mM Tris-HCl, pH 7.5, 150 mM NaCl and 1 mM DTT. For crystallization experiments, purified proteins were concentrated to 18 mg/mL for SMN, 23 mg/mL for UHRF1 and 10 mg/mL for TDRD3 in the gel-filtration buffer. All the mutations were introduced with the QuikChange II XL site-directed mutagenesis kit (Stratagene, 200522) and confirmed by DNA sequencing. Mutant proteins were also expressed in E. coli BL21 (DE3) Codon plus RIL and purified using the same procedures described above. The molecular weight of all protein samples was measured by mass spectrometry.
For the ITC measurement, the concentrated proteins were diluted into 20 mM Tris-HCl, pH 7.5, 150 mM NaCl (ITC buffer); the lyophilized compounds were dissolved in the same buffer, and the pH value was adjusted by adding 2 M NaOH or 2 M HCl. The compounds that could not be dissolved in the ITC buffer were dissolved in DMSO with the accessible highest concentration. Compound concentrations were calculated from the mass and the volume of the solvent. For the ITC assay with compound dissolved in DMSO, the protein was diluted by ITC buffer containing same final concentration of DMSO. All measurements were performed in duplicate at 25 °C, using a VP-ITC (MicroCal, Inc.), an iTC-200 (MicroCal, Inc.), or a Nano-ITC (TA, Inc.) microcalorimeter. The protein with a concentration of 50–100 μM was placed in the cell chamber, and the compounds with a concentration of 0.5–2 mM in syringe was injected in 25, 20, or 20 successive injections with a spacing of 180, 150, or 120 s for VP-ITC, iTC-200, or Nano-ITC, respectively, as previously described[30]–[32]. iTC-200 or Nano-ITC data were consistent with those from the VP-ITC instrument, based on ITC results of SMN-compound 1 detected by using all the instruments. Control experiments were performed under identical conditions to determine the heat signals that arise from injection of the compounds into the buffer. Data were fitted using the single-site binding model within the Origin software 7.0 package (MicroCal, Inc.) or the independent model within the Nano-Analyze software package (TA, Inc.).

SMN Tudor domain [3] = biological target: T2, SMN Tudor domain; experiment: Fluorescence of CCVJ-Cmpd 1 in solution on addition of SMN Tudor domain; format: binding; conditions: 10 μM SMN Tudor with 10 μM CCVJ-Cmpd 1, in solution
Source text: Supplementary Fig. 5 Interaction between Tudor domain of SMN and CCVJ-Cmpd 1 triggers fluorescence signals. a Fluorescence signals of 10 µM SMN Tudor, 10 µM CCVJ-Cmpd 1, and mixture of 10 µM SMN Tudor with 10 µM CCVJ-Cmpd 1 were detected by fluorescence microscope (Nikon, ECLIPSE Ti-E), under the excitation of blue light. The […]
the SMN Tudor domain protein. Exposure time: 1 s. b Fluorescence signals for addition of different concentrations of the SMN Tudor domain protein to 5 µM CCVJ-Cmpd 1 detected by Infinite M1000 Pro microplate reader (Tecan) with an excitation wavelength of 440 nm and an emission wavelength of 460-600 nm. Data shown are representative of three […]

SMN = biological target: T3, SMN (Homo sapiens, UniProt Q16637); conditions: physiological ligand; read-out: binding affinity (Kd) to SMN; cited from earlier work
T3 construct: endogenous in cells; host or cells: U2OS
T3 sequence (Q16637 whole entry): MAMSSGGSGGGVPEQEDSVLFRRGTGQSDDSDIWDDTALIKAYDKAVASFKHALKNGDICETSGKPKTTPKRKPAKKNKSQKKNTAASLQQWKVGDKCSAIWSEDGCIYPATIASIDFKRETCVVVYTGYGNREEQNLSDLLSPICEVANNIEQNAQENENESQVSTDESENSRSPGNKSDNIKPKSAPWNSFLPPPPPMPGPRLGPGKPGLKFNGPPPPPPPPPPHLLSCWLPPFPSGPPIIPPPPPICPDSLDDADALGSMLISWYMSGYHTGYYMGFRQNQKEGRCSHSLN

T2 sequence (Q16637 82-147): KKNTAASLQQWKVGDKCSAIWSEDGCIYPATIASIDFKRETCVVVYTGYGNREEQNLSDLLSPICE
T1 sequence (Q16637 whole entry): as the sequence (Q16637 whole entry) above

SMILES | colocalization with mCherry-SMN (mCherry-SMN) | colocalization with mCherry-SMN cage mutant [1] | Kd (SMN Tudor domain [2]) [µM] | fluorescence signal on addition of SMN Tudor domain protein (SMN Tudor domain [3]) | Kd (SMN) [µM]
N#C/C(=C\c1cc2c3c(c1)CCCN3CCC2)C(=O)NCCNC(=O)Cn1c2c(c(=N)c3c1CCC3)CCC2 [CCVJ-Cmpd 1] | colocalized | not observed | 22 ± 1 | enhanced | –
CN=C(NC)NCCC[C@H](N)C(=O)O [symmetric dimethylarginine] | – | – | – | – | 476
